Reference: US10478423B2, “Substituted indazole derivatives active as kinase inhibitiors” (NERVIANO MEDICAL SCIENCES S.R.L., priority 2011, dated 2019)

Tests used:
MOLM-13 cells = assay: In vitro cell proliferation assay (CellTiter-Glo), MOLM-13; assay type: cell-based; details: human acute leukemia cells bearing FLT3-ITD mutation, 72 h
Method: (§1) The human acute leukemia MOLM-13 AND MV-4-11 cells, bearing a FLT3-ITD mutation, were seeded (5000 cells/well) in white 384 well-plates in complete medium (RPMI 1640 plus 10% Fetal bovine serum) and treated with compounds dissolved in 0.1% DMSO, 24 h after seeding. The cells were incubated at 37° C. and 5% CO2 and after 72 h the plates were processed using CellTiter-Glo assay (Promega) following the manufacturer's instruction.
(§2) CellTiter-Glo is a homogenous method based on the quantification of the ATP present, an indicator of metabolitically active cells. ATP was quantified using a system based on luciferase and D-luciferin resultant into light generation. The luminescent signal was proportional to the number of cells present in culture.
(§3) Briefly, 25 microL/well reagent solution were added to each well and, after 5 minutes shaking, microplates were read by Envision (PerkinElmer) luminometer. Inhibitory activity was evaluated comparing treated versus control data using Symyx Assay Explorer (Symyx Technologies Inc.) program. IC50 was calculated using sigmoidal interpolation curve.

MV-4-11 cells = assay: In vitro cell proliferation assay (CellTiter-Glo), MV-4-11; assay type: cell-based; details: MV4-11, human acute leukemia cells bearing FLT3-ITD mutation, 72 h
Method: as §1, §2, §3

- IC50 (MOLM-13 cells): 3.91 µM
- IC50 (MV-4-11 cells): 5.54 µM
SMILES: CN(C)c1ccc(C(=O)Nc2n[nH]c3cc(OCc4ccccc4)ccc23)cc1 [Ref. Compound]
